Experimental data reported in article PMC9654711, “Neuroprotective Action of Coumarin Derivatives through Activation of TRKB-CREB-BDNF Pathway and Reduction of Caspase Activity in Neuronal Cells Expressing Pro-Aggregated Tau Protein” (International Journal of Molecular Sciences, 2022).

Tests used:
Assay type in all cases: cell-based, human
[1] = system: ΔK280 tauRD-DsRed SH-SY5Y folding reporter cells; experiment: High-content analysis of ΔK280 tauRD-DsRed fluorescence and cell number (folding reporter); conditions: BDNF at 100 ng/mL, LMDS-1/2 at 10 μM; untreated = 100%; Figure 6A
Description: On day 1, ∆K280 tauRD-DsRed SH-SY5Y cells were seeded in a 96-well plate (3 × 10^4/well), with retinoic acid (10 µM; Sigma-Aldrich) added to induce neuronal differentiation. […] […] For ROS measurement, dichloro-dihydro-fluorescein diacetate (DCFH-DA, 10 µM; Invitrogen, Carlsbad, CA, USA) was added to the cells on day 8 and incubated at 37 °C for 30 min.

p-ERK (T202/Y204) = experiment: Immunoblot of p-ERK (T202/Y204)
Description: (§1) ∆K280 tauRD-DsRed SH-SY5Y cells in 6-well plates (5 × 10^5/well) were treated with retinoic acid (10 µM) on day 1, followed by LMDS-1 or -2 (10 µM) and doxycycline (2 µg/mL) addition on day 2 as described. ERK inhibitor U0126 or PI3K inhibitor wortmannin (10 μM) (LC Laboratories, Woburn, MA, USA) was added on day 6. On day 8, the cells were collected for BDNF, BCL2, BAX and total/phosphorylated TRKB, ERK, AKT, CREB protein analyses as described.
(§2) ∆K280 tauRD-DsRed SH-SY5Y cells were lysed in buffer containing 50 mM Tris-HCl (pH 8.0), 150 mM NaCl, 1 mM EDTA (pH 8.0), 1 mM EGTA (pH 8.0), 0.1% SDS, 0.5% sodium deoxycholate, 1% Triton X-100 and protease (Sigma-Aldrich)/phosphatase (Roche, Basel, Switzerland) inhibitor cocktails. After two sonications with an interval of 30 min on ice, cell lysates were collected by centrifugation at 14,000× g for 30 min at 4 °C. Protein concentrations were determined using a Bradford assay (Bio-Rad, Hercules, CA, USA). Protein samples (25 µg) were separated by 10–12% SDS-PAGE and transferred to polyvinylidene difluoride (PVDF) membranes (Sigma-Aldrich). After blocking for 2 h with 10% skimmed milk or 5% BSA in 0.1% Tween 20 in Tris-buffered saline (TBST), the membrane was incubated with primary antibody against BDNF (1:500; Santa Cruz, Santa Cruz, CA, USA), BCL2 (1:500; BioVision), BAX (1:500; BioVision), TRKB (1:1000; Cell Signaling, Danvers, MA, USA), p-TRKB (Y516) (1:1000; Cell Signaling), p-TRKB (Y817) (1:1000; Millipore, Billerica, MA, USA), ERK (1:1000; Cell Signaling), p-ERK (T202/Y204) (1:500; Cell Signaling), AKT (1:1000; Cell Signaling), p-AKT (S473) (1:1000; Cell Signaling), CREB (1:1000; Santa Cruz), p-CREB (S133) (1:1000; Millipore), JNK (1:1000; Cell Signaling), p-JNK (T183/Y185) (1:1000; Cell Signaling) or loading control glyceraldehyde-3-phosphate dehydrogenase (GAPDH) (1:1000; MDBio, Taipei, Taiwan). After three washes with TBST, the immune complexes were detected using horseradish peroxidase-conjugated goat anti-mouse or goat anti-rabbit secondary IgG antibody (1:5000, GeneTex, Irvine, CA, USA) and enhanced chemiluminescence substrates luminol and peroxide (Millipore). The primary and secondary antibodies used were diluted with TBST. The chemiluminescent detection was performed on ImageQuant™ LAS 4000mini (GE Healthcare).

p-AKT (S473) = experiment: Immunoblot of p-AKT (S473)
Description: as §1, §2

p-TRKB (Y516 and Y817) = experiment: Immunoblot of p-TRKB (Y516 and Y817); conditions: for p-TRKB Y516 level / p-TRKB Y817 level: 10 µM; for p-TRKB Y516 level: induced untreated 67%; for p-TRKB Y817 level: induced untreated 74%; for p-TRKB (Y516/Y817) level: BDNF 100 ng/mL, LMDS-1/2 10 μM, induced untreated 77–83%, Figure 6B
Description: as §1, §2

p-CREB (S133) = experiment: Immunoblot of p-CREB (S133)
Description: as §1, §2

CREB = experiment: Immunoblot of CREB; conditions: 10 µM; induced untreated 83%
Description: as §1
(§3) ∆K280 tauRD-DsRed SH-SY5Y cells were lysed in buffer containing 50 mM Tris-HCl (pH 8.0), 150 mM NaCl, 1 mM EDTA (pH 8.0), 1 mM EGTA (pH 8.0), 0.1% SDS, 0.5% sodium deoxycholate, 1% Triton X-100 and protease (Sigma-Aldrich)/phosphatase (Roche, Basel, Switzerland) inhibitor cocktails. After two sonications with an interval of 30 min on ice, cell lysates were collected by centrifugation at 14,000× g for 30 min at 4 °C. Protein concentrations were determined using a Bradford assay (Bio-Rad, Hercules, CA, USA). Protein samples (25 µg) were separated by 10–12% SDS-PAGE and transferred to polyvinylidene difluoride (PVDF) membranes (Sigma-Aldrich). […] After three washes with TBST, the immune complexes were detected using horseradish peroxidase-conjugated goat anti-mouse or goat anti-rabbit secondary IgG antibody (1:5000, GeneTex, Irvine, CA, USA) and enhanced chemiluminescence substrates luminol and peroxide (Millipore). […]

pro-BDNF (31 kDa) = experiment: Immunoblot of pro-BDNF; conditions: 10 µM; induced untreated 62%
Description: as §1, §3

m-BDNF (13 kDa) = experiment: Immunoblot of m-BDNF; conditions: 10 µM; induced untreated 69%
Description: as §1, §3

BCL2 = experiment: Immunoblot of BCL2; conditions: 10 µM; induced untreated 73%
Description: as §1, §3

[2] = 10 µM, induced untreated 78%, Figure 5C
[3] = BDNF 100 ng/mL, LMDS-1/2 10 μM, induced untreated 72%, Figure 6B

SMILES	DsRed fluorescence intensity [1]	p-ERK level (p-ERK (T202/Y204); 10 µM plus U0126 10 μM)	p-ERK level (p-ERK (T202/Y204); 10 µM, induced untreated 76%)	p-AKT level (p-AKT (S473); 10 µM plus wortmannin 10 μM)	p-AKT level (p-AKT (S473); 10 µM, induced untreated 72%)	p-TRKB Y516 level (p-TRKB (Y516 and Y817))	p-TRKB Y817 level (p-TRKB (Y516 and Y817))	p-TRKB (Y516/Y817) level (p-TRKB (Y516 and Y817))	p-CREB level (p-CREB (S133); [2])	p-CREB level (p-CREB (S133); [3])	CREB level (CREB)	pro-BDNF level (pro-BDNF (31 kDa))	m-BDNF level (m-BDNF (13 kDa))	BCL2 level (BCL2)
CCOc1ccc2cc(C(=O)c3ccccc3)c(=O)oc2c1 [LMDS-1]	111–112%	65–66%	101–102%	62–64%	96–100%	92–93%	103–105%	96–104%	105–108%	90–95%	98–101%	94–99%	97–102%	111–114%
O=C(c1ccccc1)c1cc2ccc(O)cc2oc1=O [LMDS-2]	111–112%	65–66%	101–102%	62–64%	96–100%	92–93%	103–105%	96–104%	105–108%	90–95%	98–101%	94–99%	97–102%	111–114%
